Values joined by “and” are separate entries in the source; they are usually repeats but may differ in a detail not shown here. Equal values may be shown once.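 Grown in 96-well plates, cells were treated for 48 hours with each compound at five concentrations. Insufficient inhibition: endpoint recorded as highest concentration tested. Abbreviation: GI50, concentration required for 50% inhibition of growth.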 Active and inactive are the calls of the source. Rule as the data show it: active = GI50 up to about 1.1 µM and inactive = higher. Starred links: 1 amine or outer side, 2 acyl side, 3 side chain; linkers in the order of their positions; H or OH if unused. Positions of bridges follow the written chain, without caps; N, C: chain ends. Non-standard residues stand in square brackets, D forms with d. Residues, ends and D or L forms follow the SMILES beside them. Chains are numbered I, II in the order given. Actinocin(9to1) = Cc1c2oc3c(C)ccc(C(=O)[*:1])c3nc-2c(C(=O)[*:2])c(N)c1=O; NMeF = CN[CH](Cc1ccccc1)C(=O)O; Sar = CNCC(=O)O
Experiments:
Test in all cases: inhibition of tumour cell growth, NCI panel, 48 h
[1] = system: SNB-75
[2] = system: MDA-MB-231
[3] = system: OVCAR-3
[4] = system: NCI-H23
[5] = system: ACHN
[6] = system: HCT-116
[7] = system: SNB-19
[8] = system: NCI/ADR-RES
[9] = system: HOP-92
[10] = system: TK-10
[11] = system: K562
[12] = system: SN12C
[13] = system: Malme-3M
[14] = system: BT-549
[15] = system: MOLT-4
[16] = system: OVCAR-8
[17] = system: M14
[18] = system: HCT-15
[19] = system: DU-145
[20] = system: KM12
[21] = system: UACC-62
[22] = system: 786-0
[23] = system: CAKI-1
[24] = system: NCI-H522
[25] = system: UO-31
[26] = system: LOX IMVI
[27] = system: SF-295
[28] = system: SW-620
[29] = system: MDA-MB-435
[30] = system: SK-OV-3
[31] = system: HOP-62
[32] = system: MCF7
[33] = system: CCRF-CEM
[34] = system: A498
[35] = system: NCI-H226
[36] = system: NCI-H460
[37] = system: HCC 2998
[38] = system: SF-539
[39] = system: PC-3
[40] = system: RXF 393
[41] = system: SK-MEL-28
[42] = system: U-251
[43] = system: HL-60
[44] = system: A549
[45] = system: EKVX
[46] = system: SR
[47] = system: OVCAR-4
[48] = system: HT-29
[49] = system: IGROV-1
[50] = system: UACC-257
[51] = system: T47D
[52] = system: OVCAR-5
[53] = system: SF-268
[54] = system: COLO 205
[55] = system: SK-MEL-5
[56] = system: Hs-578T
[57] = system: RPMI-8226
[58] = system: SK-MEL-2

Measured: GI50

COc1cc2c(c(O)c1OC)C(O)C1CCC(=O)N1C2c1ccc2c(c1)OCO2 (stereo unspecified)
inactive: [1] 81.3 µM | [2] > 100 µM | [3] > 100 µM | [4] > 100 µM | [5] > 100 µM | [6] > 100 µM | [7] > 100 µM | [8] > 100 µM | [9] > 100 µM | [10] > 100 µM | [11] > 100 µM | [12] > 100 µM | [13] > 100 µM | [14] > 100 µM | [15] > 100 µM | [16] > 100 µM | [17] > 100 µM | [19] > 100 µM | [20] > 100 µM | [21] > 100 µM | [22] > 100 µM | [23] > 100 µM | [24] > 100 µM | [25] > 100 µM | [26] > 100 µM | [27] > 100 µM | [28] > 100 µM | [29] > 100 µM | [30] > 100 µM | [31] > 100 µM | [32] > 100 µM | [33] > 100 µM | [34] > 100 µM | [35] > 100 µM | [36] > 100 µM | [37] > 100 µM | [38] > 100 µM | [39] > 100 µM | [40] > 100 µM | [41] > 100 µM | [42] > 100 µM | [43] > 100 µM | [44] > 100 µM | [45] > 100 µM | [46] > 100 µM | [47] > 100 µM | [48] 80.2 µM | [49] > 100 µM | [50] > 100 µM | [51] > 100 µM | [52] > 100 µM | [53] > 100 µM | [54] > 100 µM
> 100 µM: [18]

O=C(CN1C(=O)CC(c2ccccc2)(c2ccccc2)C1=O)N1CCN(CCO)CC1
> 100 µM: [18]
inactive: [1] > 100 µM | [2] > 100 µM | [3] > 100 µM | [55] > 100 µM | [56] > 100 µM | [4] > 100 µM | [5] > 100 µM | [6] > 100 µM | [7] > 100 µM | [8] > 100 µM | [9] > 100 µM | [10] > 100 µM | [11] > 100 µM | [12] > 100 µM | [14] > 100 µM | [15] > 100 µM | [16] > 100 µM | [17] > 100 µM | [19] > 100 µM | [20] > 100 µM | [21] > 100 µM | [22] > 100 µM | [23] > 100 µM | [24] > 100 µM | [25] > 100 µM | [26] > 100 µM | [27] > 100 µM | [28] > 100 µM | [29] > 100 µM | [30] > 100 µM | [31] > 100 µM | [57] > 100 µM | [32] > 100 µM | [33] > 100 µM | [34] > 100 µM | [37] > 100 µM | [38] > 100 µM | [39] > 100 µM | [40] > 100 µM | [41] > 100 µM | [42] > 100 µM | [44] > 100 µM | [45] > 100 µM | [47] > 100 µM | [58] > 100 µM | [48] > 100 µM | [49] > 100 µM | [50] > 100 µM | [51] > 100 µM | [52] > 100 µM | [53] > 100 µM | [54] > 100 µM

CC1CCC(=O)C(C(=O)CC2CC(=O)N(C)C(=O)C2)C1 (stereo unspecified)
> 100 µM: [18]
inactive: [1] 35.3 µM | [2] > 100 µM | [3] > 100 µM | [55] > 100 µM | [56] > 100 µM | [4] > 100 µM | [5] > 100 µM | [6] > 100 µM | [7] > 100 µM | [8] > 100 µM | [9] > 100 µM | [10] > 100 µM | [11] > 100 µM | [12] > 100 µM | [13] > 100 µM | [14] > 100 µM | [15] > 100 µM | [16] > 100 µM | [17] > 100 µM | [19] > 100 µM | [20] > 100 µM | [21] > 100 µM | [22] > 100 µM | [23] > 100 µM | [24] > 100 µM | [25] > 100 µM | [26] > 100 µM | [27] > 100 µM | [28] > 100 µM | [29] > 100 µM | [30] > 100 µM | [31] > 100 µM | [57] > 100 µM | [32] > 100 µM | [33] > 100 µM | [34] > 100 µM | [35] > 100 µM | [36] > 100 µM | [37] > 100 µM | [38] > 100 µM | [39] > 100 µM | [40] > 100 µM | [41] > 100 µM | [42] > 100 µM | [43] > 100 µM | [44] > 100 µM | [45] > 100 µM | [47] > 100 µM | [58] > 100 µM | [48] > 100 µM | [49] > 100 µM | [50] > 100 µM | [51] > 100 µM | [52] > 100 µM | [53] > 100 µM | [54] > 100 µM

CC1(C)[C@@H]2C[C@H]1C(Cc1ccc(C[C@H]3c4cc(-c5ccccn5)ncc4[C@H]4C[C@@H]3C4(C)C)cc1)c1cc(-c3ccccn3)ncc12 (stereo partly specified)
inactive: [1] 59.8 µM | [2] 5.35 µM | [56] > 100 µM | [4] 2.68 µM | [7] 3.32 µM | [8] 2.71 µM | [13] 4.53 µM | [14] 3.33 µM | [17] 1.16 µM | [19] 2.31 µM | [20] 2.18 µM | [22] 1.41 µM | [23] 2.45 µM | [24] 7.14 µM | [27] 1.22 µM | [28] 3.46 µM | [29] 1.13 µM | [30] 7.83 µM | [57] 3.03 µM | [32] 1.89 µM | [34] 2.36 µM | [37] 1.74 µM | [38] 1.22 µM | [40] 3.58 µM | [41] 3.54 µM | [45] 1.32 µM | [58] 7.38 µM | [48] 1.44 µM | [49] 1.25 µM | [50] 2.63 µM | [51] 2.52 µM | [52] 1.46 µM | [54] 1.41 µM
2.9 µM: [18]
active: [3] 0.679 µM | [55] 0.619 µM | [5] 0.971 µM | [6] 0.75 µM | [10] 0.841 µM | [11] 0.649 µM | [12] 0.902 µM | [15] 0.431 µM | [16] 0.678 µM | [21] 0.67 µM | [25] 0.931 µM | [26] 0.843 µM | [31] 0.538 µM | [33] 0.619 µM | [36] 0.916 µM | [39] 0.587 µM | [42] 1.01 µM | [43] 0.518 µM | [44] 0.807 µM | [46] 0.561 µM | [53] 0.865 µM

Cc1c2oc3c(C)ccc(C(=O)NC4C(=O)NC(C(C)C)C(=O)N5CCCC5C(=O)N(C)CC(=O)N(C)C(Cc5ccccc5)C(=O)OC4C)c3nc-2c(C(=O)NC2C(=O)NC(C(C)C)C(=O)N3CCCC3C(=O)N(C)CC(=O)N(C)C(Cc3ccccc3)C(=O)OC2C)c(N)c1=O (stereo unspecified) (I: TVP[Sar][NMeF] / II: TVP[Sar][NMeF]; ester I:1-I:C, II:1-II:C; linker I:N-II:N via Actinocin(9to1); configuration not given here)
active: [1] < 10 nM and 7.11 nM | [3] < 10 nM and 12.9 nM | [55] < 10 nM and 6 nM | [56] < 10 nM and 7.24 nM | [4] < 10 nM and < 11.1 nM | [5] 0.00989 µM | [9] < 10 nM and 14.9 nM | [13] < 10 nM and 6.65 nM | [14] 0.0189 µM | [16] 0.0127 µM | [17] < 10 nM and 19.6 nM | [19] 0.00807 µM | [20] 0.00504 µM | [23] < 10 nM and 17.3 nM | [27] < 10 nM and 10.8 nM | [28] < 10 nM and 6.17 nM | [29] < 10 nM and 6.21 nM | [30] 0.0157 µM | [31] < 10 nM and 9.31 nM | [57] < 10 nM and 9.95 nM | [34] 0.0108 µM | [35] < 10 nM and 16.5 nM | [37] 0.00887 µM | [38] < 10 nM and 5.64 nM | [39] 0.0112 µM | [40] < 10 nM and 12.5 nM | [41] < 10 nM and 7.33 nM | [47] < 10 nM and 6.64 nM | [58] 0.00957 µM | [50] < 10 nM and 12.8 nM | [51] 0.00521 µM | [53] < 10 nM and 9.29 nM

From ChEMBL document CHEMBL1201862, “PubChem BioAssay data set” (2004)
